# Test system: hPBMC cells
# Experiment: Immunostimulation of hPBMC cells by RNA/peptide complexes, cytokine production (IL-6, TNF-alpha) by ELISA
# Assay type: cell-based, human
# Settings: hPBMCs, 24 h; nona-arginine or mRNA alone (not complexed)
# Protocol: 15 μg RNA stabilized luciferase mRNA according to SEQ ID NO: 36 (Luc-RNActive) were mixed in different mass ratios with nona-arginine (Arg9) or poly-L-arginine (Sigma-Aldrich; P4663; 5000-15000 g/mol), thereby forming a complex. Following mass ratios were used as shown exemplarily for ((Arg)9). Poly-L-arginine was used for comparative examples following the same instructions.
# HPBMC cells from peripheral blood of healthy donors were isolated using a Ficoll gradient and washed subsequently with 1×PBS (phosphate-buffered saline). The cells were then seeded on 96-well microtiter plates (200×1 03/well). […] The immunostimulatory effect upon the hPBMC cells was measured by detecting the cytokine production (Interleukin-6 and Tumor necrose factor alpha). […] Then, the plate was again washed with 1×PBS, containing 0.05% TWEEN®-20 surfactant, and ABTS (2,2′-azino-bis(3-ethylbenzthiazoline-6-sulfonic acid) was added as a substrate. The amount of cytokine was determined by measuring the absorption at 405 nm (OD405) using a standard curve with recombinant Cytokines (BD Pharmingen, Heidelberg, Germany) with the Sunrise ELISA-Reader from Tecan (Crailsheim, Germany). […]
# The effect of R9H3 on immunostimulation was tested in hPBMCs. […] The immunostimulatory effect upon the hPBMC cells was measured by detecting the cytokine production (Interleukin-6 and Tumor necrose factor alpha). […]
substance,measurement,value
Arg-Arg-Arg-Arg-Arg-Arg-Arg-Arg-Arg (RRRRRRRRR; Synthetic peptide - Exemplary oligopeptide according to formula I) [nona-arginine ((Arg)9) alone],TNFalpha production,no significant TNFalpha production

# Source: patent US10111967B2, “Complexes of RNA and cationic peptides for transfection and for immunostimulation” (CureVac AG, priority 2007, dated 2018)
